From patent US20060069132A1, “Azolecarboxamide herbicides” (priority 2004, published 2006)

What was measured:
velvetleaf [1] = assay: Test A pre-/postemergence herbicide test; format: in vivo, Abutilon theophrasti
Procedure, shortened: (§1)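 Sandy loam soil given preemergence directed spray; plants at 2 to 10 cm, one- to two-leaf stage, sprayed to runoff postemergence, compounds in non-phytotoxic solvent with surfactant. Injury rated visually versus untreated controls after about ten greenhouse days, 0 (no effect) to 100 (complete control); dash means not tested.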

barnyardgrass [2] = assay: Test B flooded paddy test; format: in vivo, Echinochloa crus-galli; conditions: scale 0 to 100 (0 no effect, 100 complete control)
Procedure, shortened: (§2)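 Read-out: visual comparison with controls, scored 0 to 100, where 100 means complete control and 0 no effect. Formulated chemicals were applied postemergence to plants 2–18 cm tall (1- to 4-leaf), or to flooded-paddy plants at the 2-leaf stage, then held 13 to 15 days under glass.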

ducksalad = assay: Test B flooded paddy test; format: in vivo, Heteranthera limosa; conditions: scale 0 to 100 (0 no effect, 100 complete control)
Procedure, shortened: as §2

large crabgrass [3] = assay: Test A pre-/postemergence herbicide test; format: in vivo, Digitaria sanguinalis
Procedure, shortened: as §1

rice = assay: Test B flooded paddy test; format: in vivo, Oryza sativa; conditions: scale 0 to 100 (0 no effect, 100 complete control)
Procedure, shortened: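 Paddy species grown to the 2-leaf stage under flooding; blackgrass sprayed postemergence at 2–18 cm (1- to 4-leaf stage). Plants kept in a greenhouse for 13 to 15 days, then visually rated against controls on 0 (no effect) to 100 (complete control).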

barnyardgrass [4] = assay: Test A pre-/postemergence herbicide test; format: in vivo, Echinochloa crus-galli
Procedure, shortened: as §1

[5] = tested on: small flower umbrella sedge; assay: Test B flooded paddy test; format: in vivo, Cyperus difformis; conditions: scale 0 to 100 (0 no effect, 100 complete control)
Procedure, shortened: as §2

giant foxtail [6] = assay: Test A pre-/postemergence herbicide test; format: in vivo, Setaria faberi
Procedure, shortened: as §1

morningglory [7] = assay: Test A pre-/postemergence herbicide test; format: in vivo, Ipomoea spp.
Procedure, shortened: as §1

redroot pigweed = assay: Test A pre-/postemergence herbicide test; format: in vivo, Amaranthus retroflexus
Procedure, shortened: as §1

velvetleaf [8] = assay: Test B pre-/postemergence herbicide test; format: in vivo, Abutilon theophrasti; conditions: for Plant response rating (0 to 100 scale), Velvetleaf: 0 is no effect, 100 is complete control, preemergence
Procedure, shortened: (§3)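 Test chemicals in a non-phytotoxic solvent mixture with surfactant were applied preemergence to seeded species and postemergence to plants 2-18 cm tall (1- to 4-leaf stage); rice and barnyardgrass were also tested in a flooded paddy at the 2-leaf stage. Visual rating versus controls after 13-15 days in greenhouse, scale 0 (no effect) to 100 (complete control).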

cocklebur = assay: Test B pre-/postemergence herbicide test; format: in vivo, Xanthium strumarium; conditions: for Plant response rating (0 to 100 scale), Cocklebur: 0 is no effect, 100 is complete control, preemergence
Procedure, shortened: (§4)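 Pre: seeds sown, then sprayed. Post: 1–4-leaf plants (2–18 cm) sprayed at the same time. Paddy: flooded, treated at 2-leaf stage. Formulation: non-phytotoxic solvent with surfactant. Greenhouse 13–15 days; visual 0–100 score relative to controls.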

barnyardgrass [9] = assay: Test B pre-/postemergence herbicide test; format: in vivo, Echinochloa crus-galli; conditions: for Plant response rating (0 to 100 scale), Barnyardgrass: 0 is no effect, 100 is complete control, preemergence; for Barnyardgrass plant response rating: scale 0 (no effect) to 100 (complete control)
Procedure, shortened: as §4

Surinam grass = assay: Test B pre-/postemergence herbicide test; format: in vivo, Urochloa decumbens; conditions: for Plant response rating (0 to 100 scale), Surinam Grass: 0 is no effect, 100 is complete control, preemergence
Procedure, shortened: as §3

pigweed = assay: Test B pre-/postemergence herbicide test; format: in vivo, Amaranthus retroflexus; conditions: for Plant response rating (0 to 100 scale), Pigweed: 0 is no effect, 100 is complete control, preemergence
Procedure, shortened: as §3

wild oat = assay: Test B postemergence herbicide test; format: in vivo, Avena fatua
Procedure, shortened: (§5)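 Greenhouse test; postemergence application to plants at 1–4 leaves (2–18 cm); paddy species at 2 leaves; evaluated visually vs controls at 13–15 days; scale 0–100 (100 = complete control).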

giant foxtail [10] = assay: Test B pre-/postemergence herbicide test; format: in vivo, Setaria faberi; conditions: for Plant response rating (0 to 100 scale), Foxtail, Giant: 0 is no effect, 100 is complete control, preemergence
Procedure, shortened: as §3

blackgrass = assay: Test B postemergence herbicide test; format: in vivo, Alopecurus myosuroides
Procedure, shortened: as §2

large crabgrass [11] = assay: Test B pre-/postemergence herbicide test; format: in vivo, Digitaria sanguinalis; conditions: for Plant response rating (0 to 100 scale), Crabgrass, Large: 0 is no effect, 100 is complete control, preemergence
Procedure, shortened: as §3

lambsquarters = assay: Test B pre-/postemergence herbicide test; format: in vivo, Chenopodium album; conditions: for Plant response rating (0 to 100 scale), Lambsquarters: 0 is no effect, 100 is complete control, preemergence
Procedure, shortened: as §3

corn = assay: Test B pre-/postemergence herbicide test; format: in vivo, Zea mays; conditions: for Plant response rating (0 to 100 scale), Corn: 0 is no effect, 100 is complete control, preemergence
Procedure, shortened: as §3

wheat = assay: Test B postemergence herbicide test; format: in vivo, Triticum aestivum; design: key to Wheat plant response rating: 0 = no effect, 100 = complete control
Procedure, shortened: as §5

morningglory [12] = assay: Test B pre-/postemergence herbicide test; format: in vivo, Ipomoea coccinea; conditions: for Plant response rating (0 to 100 scale), Morningglory: 0 is no effect, 100 is complete control, preemergence
Procedure, shortened: as §4

[13] = Postemergence, 125 g ai/ha, 0 to 100 scale, 0 no effect, 100 complete control
[14] = Postemergence, 500 g ai/ha, 0 to 100 scale, 0 no effect, 100 complete control
[15] = preemergence, 125 g ai/ha, visual injury, 0 to 100 scale (0 no effect, 100 complete control)
[16] = preemergence, 500 g ai/ha, visual injury, 0 to 100 scale (0 no effect, 100 complete control)
[17] = 125 g ai/ha, visual rating, scale 0 (no effect) to 100 (complete control), postemergence
[18] = Postemergence, 500 g ai/ha, scale 0 (no effect) to 100 (complete control)
[19] = 500 g ai/ha, scale 0 to 100, 0 no effect, 100 complete control, preemergence
[20] = postemergence, 125 g ai/ha, scale 0 to 100

CCn1nc(C(C)(C)C)nc1C(=O)Nc1cc(C(=O)N(C)C)ccc1F [Compound 450]
Velvetleaf plant response rating (velvetleaf [1]; [13]): 30
Velvetleaf plant response rating (velvetleaf [1]; [14]): 60
Velvetleaf plant response rating (velvetleaf [1]; [15]): 0
Velvetleaf plant response rating (velvetleaf [1]; [16]): 35
Barnyardgrass plant response rating (barnyardgrass [2]; 125 g ai/ha): 50
Barnyardgrass plant response rating (barnyardgrass [2]; 500 g ai/ha): 80
Ducksalad plant response rating (ducksalad; 125 g ai/ha): 40
Ducksalad plant response rating (ducksalad; 500 g ai/ha): 80
Crabgrass, Large plant response rating (large crabgrass [3]; [13]): 15
Crabgrass, Large plant response rating (large crabgrass [3]; [14]): 70
Crabgrass, Large plant response rating (large crabgrass [3]; [15]): 35
Crabgrass, Large plant response rating (large crabgrass [3]; [16]): 70
Rice plant response rating (rice; 125 g ai/ha): 60
Rice plant response rating (rice; 500 g ai/ha): 80
Barnyardgrass plant response rating (barnyardgrass [4]; [13]): 60
Barnyardgrass plant response rating (barnyardgrass [4]; [14]): 80
Barnyardgrass plant response rating (barnyardgrass [4]; [15]): 60
Barnyardgrass plant response rating (barnyardgrass [4]; [16]): 95
Sedge, Umbrella plant response rating ([5]; 125 g ai/ha): 60
Sedge, Umbrella plant response rating ([5]; 500 g ai/ha): 80
Foxtail, Giant plant response rating (giant foxtail [6]; [13]): 50
Foxtail, Giant plant response rating (giant foxtail [6]; [14]): 75
Foxtail, Giant plant response rating (giant foxtail [6]; [15]): 70
Foxtail, Giant plant response rating (giant foxtail [6]; [16]): 95
Morningglory plant response rating (morningglory [7]; [13]): 25
Morningglory plant response rating (morningglory [7]; [14]): 30
Morningglory plant response rating (morningglory [7]; [15]): 0
Morningglory plant response rating (morningglory [7]; [16]): 15
Pigweed plant response rating (redroot pigweed; [13]): 20
Pigweed plant response rating (redroot pigweed; [14]): 55
Pigweed plant response rating (redroot pigweed; [15]): 25
Pigweed plant response rating (redroot pigweed; [16]): 95

C=CCN(CC=C)C(=O)c1cccc(NC(=O)c2nn(C(C)C)nc2CC)c1 [Compound 390]
Plant response rating (0 to 100 scale), Velvetleaf (velvetleaf [8]; 125 g ai/ha): 0
Velvetleaf plant response rating (velvetleaf [8]; [17]): 0
Velvetleaf plant response rating (velvetleaf [8]; [18]): 20
Barnyardgrass plant response rating (barnyardgrass [2]; 1000 g ai/ha): 0
Plant response rating (0 to 100 scale), Cocklebur (cocklebur; 125 g ai/ha): 0
Cocklebur plant response rating (cocklebur; [17]): 20
Cocklebur plant response rating (cocklebur; [18]): 20
Plant response rating (0 to 100 scale), Barnyardgrass (barnyardgrass [9]; 125 g ai/ha): 0
Barnyardgrass plant response rating (barnyardgrass [9]; 125 g ai/ha, visual rating, postemergence): 0
Barnyardgrass plant response rating (barnyardgrass [9]; Postemergence, 500 g ai/ha): 10
Ducksalad plant response rating (ducksalad; 1000 g ai/ha): 40
Plant response rating (0 to 100 scale), Surinam Grass (Surinam grass; 125 g ai/ha): 0
Surinam Grass plant response rating (Surinam grass; [17]): 0
Surinam Grass plant response rating (Surinam grass; [18]): 10
Plant response rating (0 to 100 scale), Pigweed (pigweed; 125 g ai/ha): 0
Pigweed plant response rating (pigweed; [17]): 50
Pigweed plant response rating (pigweed; [18]): 60
Oat, Wild plant response rating (wild oat; [17]): 0
Oat, Wild plant response rating (wild oat; [18]): 10
Rice plant response rating (rice; 1000 g ai/ha): 30
Plant response rating (0 to 100 scale), Foxtail, Giant (giant foxtail [10]; 125 g ai/ha): 0
Foxtail, Giant plant response rating (giant foxtail [10]; [17]): 10
Foxtail, Giant plant response rating (giant foxtail [10]; [18]): 30
Sedge, Umbrella plant response rating ([5]; 1000 g ai/ha): 60
Blackgrass plant response rating (blackgrass; [17]): 0
Blackgrass plant response rating (blackgrass; [18]): 10
Plant response rating (0 to 100 scale), Crabgrass, Large (large crabgrass [11]; 125 g ai/ha): 10
Crabgrass, Large plant response rating (large crabgrass [11]; [17]): 10
Crabgrass, Large plant response rating (large crabgrass [11]; [18]): 20
Plant response rating (0 to 100 scale), Lambsquarters (lambsquarters; 125 g ai/ha): 30
Lambsquarters plant response rating (lambsquarters; [17]): 60
Lambsquarters plant response rating (lambsquarters; [18]): 60
Plant response rating (0 to 100 scale), Corn (corn; 125 g ai/ha): 0
Corn plant response rating (corn; [17]): 0
Corn plant response rating (corn; [18]): 20
Wheat plant response rating (wheat; [17]): 0
Wheat plant response rating (wheat; [19]): 10
Wheat plant response rating (wheat; [18]): 0
Plant response rating (0 to 100 scale), Morningglory (morningglory [12]; 125 g ai/ha): 0
Morningglory plant response rating (morningglory [12]; [17]): 0
Morningglory plant response rating (morningglory [12]; [18]): 40

CCOC(=O)c1ccnc(NC(=O)c2nn(C(C)(C)C)nc2C)c1 [Compound 421]
Plant response rating (0 to 100 scale), Velvetleaf (velvetleaf [8]; 125 g ai/ha): 0
Velvetleaf plant response rating (velvetleaf [8]; [18]): 0
Velvetleaf plant response rating (velvetleaf [8]; [20]): 0
Barnyardgrass plant response rating (barnyardgrass [2]; 1000 g ai/ha): 0
Plant response rating (0 to 100 scale), Cocklebur (cocklebur; 125 g ai/ha): 0
Cocklebur plant response rating (cocklebur; [18]): 0
Cocklebur plant response rating (cocklebur; [20]): 0
Plant response rating (0 to 100 scale), Barnyardgrass (barnyardgrass [9]; 125 g ai/ha): 0
Barnyardgrass plant response rating (barnyardgrass [9]; Postemergence, 125 g ai/ha): 0
Barnyardgrass plant response rating (barnyardgrass [9]; Postemergence, 500 g ai/ha): 0
Ducksalad plant response rating (ducksalad; 1000 g ai/ha): 0
Plant response rating (0 to 100 scale), Surinam Grass (Surinam grass; 125 g ai/ha): 0
Surinam Grass plant response rating (Surinam grass; [18]): 0
Surinam Grass plant response rating (Surinam grass; [20]): 0
Plant response rating (0 to 100 scale), Pigweed (pigweed; 125 g ai/ha): 0
Pigweed plant response rating (pigweed; [18]): 0
Pigweed plant response rating (pigweed; [20]): 0
Oat, Wild plant response rating (wild oat; [18]): 0
Oat, Wild plant response rating (wild oat; [20]): 0
Rice plant response rating (rice; 1000 g ai/ha): 0
Plant response rating (0 to 100 scale), Foxtail, Giant (giant foxtail [10]; 125 g ai/ha): 0
Foxtail, Giant plant response rating (giant foxtail [10]; [18]): 0
Foxtail, Giant plant response rating (giant foxtail [10]; [20]): 0
Sedge, Umbrella plant response rating ([5]; 1000 g ai/ha): 0
Blackgrass plant response rating (blackgrass; [18]): 20
Blackgrass plant response rating (blackgrass; [20]): 20
Plant response rating (0 to 100 scale), Crabgrass, Large (large crabgrass [11]; 125 g ai/ha): 0
Crabgrass, Large plant response rating (large crabgrass [11]; [18]): 0
Crabgrass, Large plant response rating (large crabgrass [11]; [20]): 0
Plant response rating (0 to 100 scale), Lambsquarters (lambsquarters; 125 g ai/ha): 0
Lambsquarters plant response rating (lambsquarters; [18]): 0
Lambsquarters plant response rating (lambsquarters; [20]): 0
Plant response rating (0 to 100 scale), Corn (corn; 125 g ai/ha): 0
Corn plant response rating (corn; [18]): 0
Corn plant response rating (corn; [20]): 0
Wheat plant response rating (wheat; [19]): 0
Wheat plant response rating (wheat; [18]): 0
Wheat plant response rating (wheat; [20]): 0
Plant response rating (0 to 100 scale), Morningglory (morningglory [12]; 125 g ai/ha): 0
Morningglory plant response rating (morningglory [12]; [18]): 0
Morningglory plant response rating (morningglory [12]; [20]): 0
